The results in this text go back to patent US8044068B2, “Aminopyrrolidine compound” (Taisho Pharmaceutical Co., Ltd, priority 2006, dated 2011).

The structures appear in SMILES notation. Where a name gives a salt, the structure may show the parent alone.

For the experiment, the target named is T1, human MC4 receptor (Homo sapiens, UniProt P32245).
T1 construct: purchased Biolinks K.K; host or cells: HEK-293
T1 sequence (P32245 whole entry): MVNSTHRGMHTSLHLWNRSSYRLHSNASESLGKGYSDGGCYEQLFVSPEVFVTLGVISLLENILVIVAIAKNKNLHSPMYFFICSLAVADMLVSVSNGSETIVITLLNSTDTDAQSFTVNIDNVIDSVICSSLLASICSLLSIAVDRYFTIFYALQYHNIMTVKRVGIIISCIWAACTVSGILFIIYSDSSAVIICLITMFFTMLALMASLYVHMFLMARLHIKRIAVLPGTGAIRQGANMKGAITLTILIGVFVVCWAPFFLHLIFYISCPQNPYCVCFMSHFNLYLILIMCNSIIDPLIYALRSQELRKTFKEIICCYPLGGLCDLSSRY
The experiment in a line: MC4 receptor binding experiment ([125I]Nle4-D-Phe7-α-MSH displacement). Conditions: human MC4 receptor expressing HEK-293 cell membrane; [125I]Nle4-D-Phe7-α-MSH 0.2 nM, 25° C. Here is the method: The MC4 receptor binding experiment was performed according to the method described in Pharmacology & Toxicology, 79, 161-165, 1996. The human MC4 receptor expressing-cell membrane obtained by expressing the human MC4 receptor in a HEK-293 cell was purchased from Biolinks K.K. The cell membrane was homogenized with 50 mM tris hydrochloride buffer (pH 7.4) containing 2 mM ethylenediaminetetraacetic acid, 10 mM calcium chloride, and 100 μM phenylmethylsulfonyl fluoride. The homogenate was centrifuged at 48,000×g at 4° C. for 20 min. The sediment obtained by centrifugation was rehomogenized with the same buffer, and the homogenate was centrifuged at 48,000×g at 4° C. for 20 min. This procedure was repeated twice. The sediment was suspended in 50 mM tris hydrochloride buffer (pH 7.4) containing 2 mM ethylenediaminetetraacetic acid, 10 mM calcium chloride, 100 μM phenylmethylsulfonyl fluoride, and 0.1% bovine serum albumin at a protein concentration of 100 μg/ml, and the suspension was used as a crude membrane preparation for the binding experiment. The crude membrane preparation (0.25 ml, 25 μg protein) was reacted with [^125I]Nle^4-D-Phe^7-α-MSH (final concentration, 0.2 nM) at 25° C. for 120 min. After completion of the reaction, the reaction solution was filtered by suction, using a cell harvester for the receptor binding experiment, onto a GF/C glass fiber filter paper immersed in 50 mM tris hydrochloride buffer (pH 7.4) containing 0.5% bovine serum for 2 h. Radioactivity on the filter paper was measured using a γ counter. The quantity of binding in the presence of 1 μM Nle^4-D-Phe^7-α-MSH was obtained as nonspecific binding, and specific binding was obtained by deducting the nonspecific binding from the total quantity, binding in the absence of 1 μM Nle^4-D-Phe^7-α-MSH. The test drug was dissolved in 100% DMSO solution and added to the membrane preparation at the same time as [^125I]Nle^4-D-Phe^7-α-MSH. The IC50 value was obtained from the inhibition curve in the range of 10^−10 to 10^−5 M. The binding test results of representative compounds are shown in Table 21 as examples.
What is called IC50 is the concentration that inhibits the measured activity by half. A low value points to greater potency in that assay. `CCCN(CC1CC1)c1cc(C)nc(N[C@H]2CCN(C(=O)Cc3ccc(OC(F)(F)F)cc3)C2)n1` [Compound 4-035]: the concentration for half-maximal inhibition (IC50) was determined as 52 nM.
As for `Cc1ccc2nc(N[C@H]3CCN(C(=O)Cc4ccc(OC(F)(F)F)cc4)C3)nc(NCCc3ccccn3)c2c1` [Compound 1-019], the IC50 is 10 nM.
For the molecule `COc1ccc2nc(N[C@H]3CCN(C(=O)Cc4ccc(OC(F)(F)F)cc4)C3)cc(N3CCOCC3)c2c1` [Compound 3-011, (S)-1-(3-(6-methoxy-4-morpholinoquinolin-2-ylamino)pyrrolidin-1-yl)-2-(4-trifluoromethoxyphenyl)ethanone], the IC50 was 6.8 nM.
Next, `COc1ccc2nc(N[C@H]3CCN(C(=O)C(C)(C)c4ccc(Cl)cc4)C3)cc(C)c2c1` [Compound 3-041]: 46 nM.
`O=C1CN(c2nc(N[C@H]3CCN(C(=O)Cc4ccccc4-c4ccccc4)C3)nc3ccccc23)CCN1` [Compound 1-128] had an IC50 of 7.3 nM.
Molecule `Cc1cc(N[C@H]2CCN(C(=O)Cc3ccc(OC(F)(F)F)cc3)C2)nc2ccc(F)cc12` [Compound 3-019] registered an IC50 of 78 nM.
`CN(C)c1nc(N[C@H]2CCN(C(=O)Cc3ccc(OC(F)(F)F)cc3)C2)nc2ccsc12` [Compound 6-001, (S)-1-(3-(4-dimethylaminothieno[3,2-d]pyrimidin-2-ylamino)pyrrolidin-1-yl)-2-(4-trifluoromethoxyphenyl)ethanone 1 maleate] displayed an IC50 of 71 nM.
In turn, `COc1ccc2nc(N[C@@H]3CN(C(=O)Cc4ccc(OC(F)(F)F)cc4)C[C@H]3O)nc(N3CCC(S(C)(=O)=O)CC3)c2c1` [Compound 11-014] showed an IC50 of 1.4 nM.
